{"source": "patent US20210236523A1", "about": "“P[…] FOR HEADACHE DISORDERS” (priority 2020, published 2021)", "key": {"[1]": {"tested_on": "patients with migraine headache", "test": "Placebo-controlled cross-over study of a single low oral dose of psilocybin in migraine headache: headache diary burden", "assay_type": "in vivo, human", "text": "The purpose of this exploratory study was to investigate the effects of a single low dose of psilocybin in patients with migraine headache in a controlled experiment. Basic information was gathered to assist in the development of future studies considering the effects and mechanism of action of 5-HT2A receptor compounds in migraine and other headache disorders.\n(§1) This study was registered on clinicaltrials.gov (NCT03341689) with approvals from the Human Studies Subcommittee of Veterans Affairs Connecticut Healthcare System (VACHS) and the Human Investigations Committee of Yale University School of Medicine. The study was conducted under an approved Investigational New Drug application (#124,874) with the US Food & Drug Administration, under a Schedule 1 license (author DCD). Psilocybin was provided by author NC from the University of Wisconsin. Weight-based capsules of psilocybin 0.143 mg/kg and matching placebo [microcrystalline cellulose; obtained from Fagron (St. Paul, Minn.)] were compounded into identical blue gel capsules by the VACHS Investigational Research Pharmacy for each subject.\nAdults (age 21 to 65 years, inclusive) free from serious medical or psychiatric disease with migraine headache as defined by the International Classification of Headache Disorders III-beta and with a frequency of migraine attacks of 2 per week or more were eligible to participate in this study. Among the excluded medical conditions were uncontrolled hypertension, coronary artery disease, cardiac arrhythmia, cerebrovascular disease, and serious central or peripheral nervous system or spinal disease (e.g., multiple sclerosis, amyotrophic lateral sclerosis). Psychotic or manic disorders in the subject or a first degree relative was also excluded, as were substance abuse within the past 3 months and any prior serious adverse event with psilocybin, LSD, or related compounds (i.e., mescaline). Prior exposure to psilocybin or related compounds through recreational or medicinal use or through participation in other research studies was not excluded, although any use in the past 3 months was prohibited. Alcohol use within one week of the first experimental test day was prohibited. Caffeine and nicotine were not restricted. Subjects were required to be free from serotonergic antidepressants (selective serotonin reuptake inhibitors, serotonin and norepinephrine reuptake inhibitors, monoamine oxidase inhibitors, tricyclics) for at least 6 weeks, serotonergic antiemetics (i.e., ondansetron) for at least 2 weeks, and vasoconstrictive medications (i.e., pseudoephedrine) for at least 5 half-lives of said medication. Triptans were permitted, but no more than twice weekly and not within 5 half-lives of said triptan before each test day and not within 5 half-lives of psilocybin (15 hours) after each test day.\nSubjects were instructed to maintain a headache diary starting two weeks before the first experimental session until two weeks after the second experimental session. Subjects documented every headache attack, migraine (with associated migrainous symptoms) or otherwise (without associated migrainous symptoms; not counted as a migraine attack). Associated symptoms—photophobia (light sensitivity), phonophobia (sound sensitivity), nausea/vomiting—as well as attack-related functional impairment were documented using a 0-3 visual analog scale (VAS): 0=none, 1=mild, 2-moderate, 3=severe. The abortive medications taken and their effects were also recorded in the diary. Only the 14 days prior to the first experimental session (baseline) and the 14 days after each experimental session (inclusive) were counted in the final analysis.\nSubjects completed two experimental sessions, separated by at least 14 days, which were conducted in the Neurobiological Studies Unit (NSU) at VACHS. Subjects reported to the NSU at 08:00; urine drug, urine pregnancy (when applicable), and alcohol breathalyzer tests were required to be negative in order to proceed. […]"}, "[2]": {"tested_on": "patients with cluster headache", "test": "Randomized placebo-controlled study of a 3-dose psilocybin pulse regimen in cluster headache: headache diary", "assay_type": "in vivo, human", "conditions": "for effect size for change in weekly cluster attacks: psilocybin vs placebo; for change in the number of weekly cluster attacks / number of weekly cluster attacks: 3-dose pulse 0.143 mg/kg", "text": "In this exploratory study, a patient-informed regimen (a low dose of psilocybin (between 1-2 grams dried P. cubensis taken three times, approximately 5 days apart each)) was studied in patients with cluster headache in a controlled, laboratory setting. The information gained from this study serves to (1) verify longstanding anecdotal reports and (2) design larger, more definitive studies examining the safety and efficacy of psilocybin in cluster headache.\nas §1, with “(NCT02981173)” for “(NCT03341689)”, “(microcrystalline” for “[microcrystalline”, “Minn.))” for “Minn.)]”\nAdults (age 21 to 65 years, inclusive) with cluster headache as defined by the International Classification of Headache Disorders III-beta 8 were eligible to participate in this study. Both chronic and episodic cluster headache subtypes were eligible, however certain conditions were required to ensure proper interpretation of the study intervention. For both chronic and episodic subjects, an attack frequency of approximately 1 attack per day or more was required. For episodic subjects, the typical cluster period was required to last approximately 2 months or more and study participation could only take place when at least 6 weeks of the period was anticipated to remain. Excluded medical conditions included, but were not limited to, uncontrolled hypertension, coronary artery disease, cardiac arrhythmia, cerebrovascular disease, and serious central or peripheral nervous system or spinal disease. Excluded psychiatric conditions included, but were not limited to, psychotic or manic disorders in the subject or a first degree relative and substance abuse within the past 3 months. Any prior serious adverse event with psilocybin, LSD, or related compounds (i.e., mescaline) was also exclusionary. Prior exposure to psilocybin or related compounds through recreational or medicinal use or through participation in other research studies was not excluded, although any use in the past 3 months was prohibited. Alcohol use within one week of the first experimental test day was prohibited. Caffeine and nicotine were not restricted. Subjects were required to be off serotonergic antidepressants (selective serotonin reuptake inhibitors, serotonin and norepinephrine reuptake inhibitors, monoamine oxidase inhibitors, tricyclics) for at least 6 weeks and serotonergic antiemetics (i.e., ondansetron) for at least 2 weeks from the first test day. Vasoconstrictive medications (i.e., sumatriptan, pseudoephedrine) could be used during the study period, but not within 5 half-lives of said medication and not within 5 half-lives of psilocybin (15 hours) after each test day. Triptans were also not allowed more than twice weekly.\nSubjects were instructed to maintain a headache diary starting 2 weeks before until 8 weeks after the first experimental session. Subjects documented every cluster attack, including date, onset, offset, pain intensity (0-10 visual analog scale (VAS): 0=none, 1=minimal, 5=moderate, 9=severe, 10=worst imaginable). The abortive treatments taken and their effects were also recorded in the diary. Only the 14 days prior to the first experimental session (baseline) and the 56 days after the first experimental session (inclusive) were counted in the final analysis. […]"}, "[3]": {"conditions": "of 10 subjects, 14 days after single oral dose 0.143 mg/kg"}, "[4]": {"conditions": "single oral dose 0.143 mg/kg, two weeks after dosing"}}, "data": [{"smiles": "CN(C)CCc1c[nH]c2cccc(OP(=O)(O)O)c12", "note": "[psilocybin, 3-(2-dimethylaminoethyl)-1H-indol-4-yl] dihydrogen phosphate]", "values": [{"measurement": "change from baseline in attack-related functional impairment", "setting": "[1]; 0-3 VAS, single oral dose 0.143 mg/kg, mean (SEM), P=0.0235 vs placebo", "result": "−0.96 (0.26)"}, {"measurement": "subjects with no migraine attacks after administration", "setting": "[1]; [3]", "result": 2, "unit": "subjects"}, {"measurement": "subjects with only one migraine attack after administration", "setting": "[1]; [3]", "result": 2, "unit": "subjects"}, {"measurement": "change in weekly migraine days (WMD) from baseline", "setting": "[1]; single oral dose 0.143 mg/kg, 14 days after dosing, mean (SEM), 10 subjects, P=0.0027 vs placebo", "result": "−1.65 (0.39) days/week"}, {"measurement": "time to the second migraine attack after drug administration", "setting": "[1]; single oral dose 0.143 mg/kg, mean (SEM), 15 days used when no attack, P=0.0119 vs placebo", "result": "10.30 (1.61) days"}, {"measurement": "time to the first migraine attack after drug administration", "setting": "[1]; single oral dose 0.143 mg/kg, mean (SEM), 15 days used when no attack, P=0.0554 vs placebo", "result": "6.30 (1.88) days"}, {"measurement": "change from baseline in weekly migraine attacks (WMA)", "setting": "[1]; single oral dose 0.143 mg/kg, mean (SEM), P=0.0039 vs placebo", "result": "−1.40 (0.36) attacks/week"}, {"measurement": "change from baseline in pain severity", "setting": "[1]; single oral dose 0.143 mg/kg, mean (SEM), P=0.0109 vs placebo", "result": "−0.70 (0.16)"}, {"measurement": "change from baseline in weekly migraine abortive use", "setting": "[1]; single oral dose 0.143 mg/kg, mean (SEM), P=0.0140 vs placebo", "result": "−0.65 (0.21) abortives/week"}, {"measurement": "percentage of subjects who had 25% reduction in WMD", "setting": "[1]; [4]", "result": 80, "unit": "%"}, {"measurement": "percentage of subjects who had 50% reduction in WMD", "setting": "[1]; [4]", "result": 50, "unit": "%"}, {"measurement": "percentage of subjects who had 75% reduction in WMD", "setting": "[1]; [4]", "result": 30, "unit": "%"}, {"measurement": "effect size for change in weekly cluster attacks", "setting": "[2]; chronic cluster headache subjects, 8 weeks", "result": "−1.20"}, {"measurement": "change in the number of weekly cluster attacks", "setting": "[2]; chronic cluster headache subjects, across 8 weeks, P=0.080 vs placebo", "result": "−6.08 (2.29)"}, {"measurement": "number of weekly cluster attacks", "setting": "[2]; chronic cluster headache subjects, across 8 weeks, group baseline 8.67 (2.42)", "result": "4.58 (0.77)"}, {"measurement": "change in the number of weekly cluster attacks", "setting": "[2]; over the first 3 weeks, episodic and chronic combined, P=0.017 vs placebo", "result": "−6.03 (2.23)"}, {"measurement": "number of weekly cluster attacks", "setting": "[2]; over the first 3 weeks, episodic and chronic patients combined, group baseline 9.30 (1.49)", "result": "3.50 (1.12)"}, {"measurement": "effect size for change in weekly cluster attacks", "setting": "[2]; three weeks", "result": "−1.89"}]}]}
